The source of these data is patent US5294632A, “Phosphono/biaryl substituted dipetide derivatives” (Ciba-Geigy Corporation, priority 1992, dated 1994).

The test system of assay [1] is plasma ANF levels. In words: effect on rat plasma ANF concentration during ANF infusion. It counts as in vivo, Male Sprague-Dawley rats. Particulars: about 1-30 mg/kg p.o., in 10% ethanol/polyethylene glycol 400; ANF infused 450 ng/kg/min i.v. The method, then: The effect of the compounds of the invention on rat plasma ANF concentration can be determined as follows:
Male Sprague-Dawley rats (275-390 g) are anesthetized with ketamine (150 mg/kg)/acepromazine (10%) and instrumented with catheters in the femoral artery and vein to obtain blood samples and infuse ANF, respectively. The rats are tethered with a swivel system and are allowed to recover for 24 hours before being studied in the conscious, unrestrained state.
In this assay, plasma ANF levels are determined in the presence and absence of NEP inhibition. On the day of study, all rats are infused continuously with ANF at 450 ng/kg/min. i.v. for the entire 5 hours of the experiment. Sixty minutes after beginning the infusion, blood samples for baseline ANF measurements are obtained (time 0) and the rats are then randomly divided into groups treated with the test compound or vehicle. Additional blood samples are taken 30, 60, 120, 180 and 240 minutes after administration of the test compound.
Plasma concentrations are determined by a specific radioimmunoassay. […] The supernatant is decanted and the pellets counted in a gamma counter. […] Plasma ANF levels are expressed as a percent of those measured in vehicle-treated animals which received ANF alone (450 ng/kg/min i.v.).

In assay [2] the test system is ANF-induced natriuresis. In words: potentiation of the natriuretic effect of ANF in anesthetized rats. The conditions noted are these: 30 mg/Kg in polyethylene glycol 400, intraduodenally; ANF 1 μg/kg i.v. bolus. Type of assay: in vivo, Male Sprague-Dawley rats. The protocol: The potentiation of the natriuretic effect of ANF can be determined as follows:
Male Sprague-Dawley rats (280-360 g) are anesthetized with Inactin (100 mg/kg i.p.) and instrumented with catheters in the femoral artery, femoral vein and urinary bladder to measure arterial pressure, administer ANF and collect urine, respectively. A continuous infusion of normal saline (33 μl/min) is maintained throughout the experiment to promote diuresis and sodium excretion. The experimental protocol consists of an initial 15 minute collection period (designated as pre-control) followed by three additional collection periods. Immediately after completion of the pre-control period, test compound or vehicle is administered; nothing is done for the next 45 minutes. […] At the conclusion of this period, ANF is administered (1 μg/kg i.v. bolus) to all animals and arterial pressure and renal parameters are determined during two consecutive 15 minutes collection periods.
Mean arterial pressure, urine flow and urinary sodium excretion are determined for all collection periods. Blood pressure is measured with a Gould p50 pressure transducer, urine flow is determined gravimetrically, sodium concentration is measured by flame photometry, and urinary sodium excretion is calculated as the product of urine flow and urine sodium concentration.

The subject of assay [3] is DOCA-salt hypertensive rats. Kind of assay: antihypertensive effect in DOCA-salt hypertensive rats. The conditions noted are these: 30 mg/kg p.o., in PEG 400; DOCA-salt hypertensive rat. It counts as in vivo. The method, then: The antihypertensive effect can be determined in desoxycorticosterone acetate (DOCA)-salt hypertensive rats.
DOCA-salt hypertensive rats (280-380 g) are prepared by the standard method. Rats underwent a unilateral nephrectomy and one week later are implanted with silastic pellets containing 100 mg/kg of DOCA. The rats are maintained on 1% NaCl/0.2% KCl drinking water for three to five weeks until sustained hypertension is established. The antihypertensive activity is evaluated at this time.
Two days before an experiment, the rats are anesthetized with methoxyflurane and instrumented with catheters in the femoral artery to measure arterial blood pressure. Forty-eight hours later, baseline arterial pressure and heart rate are recorded during a 1 hour period. The test compound (30 mg/kg p.o.) or vehicle is then administered and the same cardiovascular parameters are monitored for an additional 5 hours.

The target in assay [4] is T1, Neutral endopeptidase 3.4.24.11 (Rattus norvegicus, UniProt P07861).
T1 construct: rat kidney cortex membranes prepared by method of Maeda et al, 1983; from tissue; host or cells: rat kidney cortex membranes
T1 sequence (P07861 1-750): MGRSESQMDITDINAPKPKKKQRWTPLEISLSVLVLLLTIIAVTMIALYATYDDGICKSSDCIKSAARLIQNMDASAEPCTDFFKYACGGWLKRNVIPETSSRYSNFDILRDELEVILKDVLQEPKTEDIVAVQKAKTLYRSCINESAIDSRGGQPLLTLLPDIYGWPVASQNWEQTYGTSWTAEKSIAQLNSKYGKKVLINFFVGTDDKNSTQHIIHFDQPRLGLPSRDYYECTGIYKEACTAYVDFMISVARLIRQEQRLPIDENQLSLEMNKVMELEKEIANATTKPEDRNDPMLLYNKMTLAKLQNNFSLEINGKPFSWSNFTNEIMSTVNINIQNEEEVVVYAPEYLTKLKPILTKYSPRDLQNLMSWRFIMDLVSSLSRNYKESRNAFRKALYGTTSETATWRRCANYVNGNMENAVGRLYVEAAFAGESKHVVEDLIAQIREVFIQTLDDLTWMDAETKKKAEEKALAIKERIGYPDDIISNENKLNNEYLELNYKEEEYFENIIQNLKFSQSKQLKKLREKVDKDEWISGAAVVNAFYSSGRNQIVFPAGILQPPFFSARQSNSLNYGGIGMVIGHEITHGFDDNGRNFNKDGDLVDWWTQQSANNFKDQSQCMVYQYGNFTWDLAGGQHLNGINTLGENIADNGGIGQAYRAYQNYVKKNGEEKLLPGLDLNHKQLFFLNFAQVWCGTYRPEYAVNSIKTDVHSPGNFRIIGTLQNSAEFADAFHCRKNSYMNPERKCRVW
Kind of assay: in vitro inhibition of neutral endopeptidase (NEP) 3.4.24.11, GAAP substrate assay. Type of assay: biochemical. Particulars: rat kidney cortex membranes, 500 μM GAAP substrate, pH 7.4, 25° C., 10 minutes. The method, then:
The in vitro inhibition of neutral endopeptidase (NEP) 3.4.24.11 can be determined as follows:
Neutral endopeptidase 3.4.24.11 activity is determined by the hydrolysis of the substrate glutaryl-Ala-Ala-Phe-2-naphthylamide (GAAP) using a modified procedure of Orlowski and Wilk (1981). The incubation mixture (total volume 125 μl) contains 4.2 μg of protein (rat kidney cortex membranes prepared by method of Maeda et al, 1983), 50 mM tris buffer, pH 7.4 at 25° C., 500 μM substrate (final concentration), and leucine aminopeptidase M (2.5 μg). The mixture is incubated for 10 minutes at 25° C. and 100 μl of fast garnet (250 μg fast garnet/ml of 10% Tween 20 in 1M sodium acetate, pH 4.2) is added. Enzyme activity is measured spectrophotometrically at 540 nm. One unit of NEP 24.11 activity is defined as 1 nmol of 2-naphthylamine released per minute at 25° C. at pH 7.4. IC50 values are determined, i.e. the concentration of test compound required for 50% inhibition of the release of 2-naphthylamine.
The test compound is dissolved in dimethyl sulfoxide or 0.25 M sodium bicarbonate solution, and the solution is diluted with pH 7.4 buffer to the desired concentration.
In vitro testing is most appropriate for the free phosphono/carboxylic acids of the invention.

SMILES strings stand for the structures.

On to `O=C(O)CCNC(=O)[C@H](Cc1ccc(-c2ccccc2)cc1)NCP(=O)(Oc1ccccc1)Oc1ccccc1` [(S)-N-[2-(diphenylphosphonomethylamino)-3-(4-biphenylyl)propionyl]-3-aminopropionic acid], for which the “increase in plasma ANF levels” value in assay [1] is given as “significant increases in plasma ANF levels”. For the same compound, the “potentiation of ANF-induced natriuresis” value in assay [2] was “significant potentiation of ANF-induced natriuresis”. Further, the “reduction in blood pressure” value in assay [3] was “significant reduction in blood pressure”.
A word on the IC50: it is the concentration that gives 50% inhibition. A low value points to inhibition by little substance. In the case of `O=C(O)CCNC(=O)[C@H](Cc1ccc(-c2ccccc2)cc1)NCP(=O)(O)O` [(S)-antipode, S-(+)-N-[2-(phosphonomethylamino)-3-(4-biphenylyl)-propionyl]-3-aminopropionic acid], the IC50 in assay [4] was approximately 1.6 nM.
In assay [4], `O=C(O)CCNC(=O)C(Cc1ccc(-c2ccccc2)cc1)NCP(=O)(O)O` (centres unmarked) [N-[2-(phosphonomethylamino)-3-(4-biphenylyl)-propionyl]-3-aminopropionic acid] showed a half-inhibitory concentration (IC50) of approximately 4.3 nM.
